Experimental data: US5573999A, “β-substituted cinnamic acid derivative” (BASF Aktiengesellschaft, priority 1991, dated 1996)

tested on: mitochondrial respiration; assay: Inhibition of mitochondrial respiration (rate of reduction of cytochrome c in isolated mitochondria), yeast; type: biochemical, Saccharomyces cerevisiae; settings: DMSO control
Excerpt: In order to determine the effect of the compounds according to the invention on mitochondrial respiration it is first necessary to isolate the mitochondria from the organisms being investigated. For this, in the case of the yeast Saccharomyces cerevisiae, the cells in a 30 to 40% strength suspension of the yeast in an aqueous solution of 0.6M mannitol+0.01M tris[hydroxymethyl]-aminomethane+0.002M disodium ethylenediaminetetraacetate (pH 6.8) are disrupted in a glass bead mill, and the extract is fractionated by differential centrifugation at 1000× g and 12000× g. The mitochondria are in the pellet from the 12000× g centrifugation.
(§1) Used as control is a mixture with the equivalent amount of pure DMSO. The inhibition at the concentration of agent in each case is then calculated as follows [formula] where ΔE is the change in extinction, at is the change in time, [formula] is the reaction rate for the control and [formula] is the reaction rate for the sample x.
(§2) The inhibition was determined in each case at a test substance concentration of 1.8/10^-5mol/l .

SMILES	% inhibition of respiration at 1.8 × 10^-5 mol/l test substance, Saccharomyces cerevisiae [%]
COC(=O)/C=C(/OC)c1ccccc1C [Compound 1.1, methyl (E)-β-methoxy-2-methylcinnamate]	23
COC(=O)/C=C(/OC)c1ccccc1OCc1csc(-c2ccc(F)cc2)n1 [Compound 1.71, methyl (E)-β-methoxy-2-[2-(4-fluorophenyl)-4-thiazolylmethyloxy]cinnamate]	30
COC(=O)/C=C(/OC)c1ccccc1Oc1cccc(C)c1 [Compound 1.90, methyl (E)-β-methoxy-2-(3-methylphenoxy)cinnamate]	85
COC(=O)/C=C(\OC)c1ccccc1Oc1cccc(C)c1 [Compound 1.91, methyl (Z)-β-methoxy-2-(3-methylphenoxy)cinnamate]	22
COC(=O)/C=C(\C)c1ccccc1CBr [Compound 1.167, methyl (E)-β-methyl-2-bromomethylcinnamate]	99
CCCCOc1ccc(OCc2ccccc2/C(=C\C(=O)OC)OC)cc1 [Compound 1a.37]	98
CCOC(=O)/C=C(/OC)c1ccccc1COc1ccc(/C(C)=N/OC)cc1C [Compound 1a.74, ethyl (E)-β-methoxy-2-[2-methyl-4-(1-methoximinoethyl)phenoxymethyl]cinnamate]	99
CCCOC(=O)/C=C(/OC)c1ccccc1COc1ccc(C(C)=NOC)cc1C [Compound 1a.75]	70
CCCCOC(=O)/C=C(/OC)c1ccccc1COc1ccc(C(C)=NOC)cc1C [Compound 1a.77]	63
CO/N=C(\C)c1ccc(OCc2ccccc2/C(=C\C(=O)ON=C(C)C)OC)c(C)c1 [Compound 1a.82]	94
C=CCOC(=O)/C=C(/OC)c1ccccc1COc1ccc(C(C)=NOC)cc1C [Compound 1a.83]	78
C#CCOC(=O)/C=C(/OC)c1ccccc1COc1ccc(C(C)=NOC)cc1C [Compound 1a.84]	98
CON=C(C)c1ccc(OCc2ccccc2/C(=C\C(=O)SC)OC)c(C)c1 [Compound 1a.86]	97
CO/N=C(\C)c1ccc(OCc2ccccc2/C(=C\C(N)=O)OC)c(C)c1 [Compound 1a.88, (E)-β-methoxy-2-[2-methyl-4-(1-methoximinoethyl)phenoxymethyl]cinnamide]	99
CNC(=O)/C=C(/OC)c1ccccc1COc1ccc(C(C)=NOC)cc1C [Compound 1a.89]	99
CCNC(=O)/C=C(/OC)c1ccccc1COc1ccc(C(C)=NOC)cc1C [Compound 1a.91]	99
CON=C(C)c1ccc(OCc2ccccc2/C(=C\C(=O)N(C)C)OC)c(C)c1 [Compound 1a.98]	100
CCCCN(C)C(=O)/C=C(/OC)c1ccccc1COc1ccc(C(C)=NOC)cc1C [Compound 1a.101]	69
COC(=O)/C=C(/C)c1ccccc1COc1ccccc1C [Compound 1a.108, methyl (Z)-β-methyl-2-(2-methylphenoxymethyl)cinnamate]	98
COC(=O)/C=C(\C)c1ccccc1COc1ccccc1C [Compound 1a.109, methyl (E)-β-methyl-2-(2-methylphenoxymethyl)cinnamate]	31
CO/N=C(\C)c1ccc(OCc2ccccc2/C(C)=C\C(=O)OC)c(C)c1 [Compound 1a.112, methyl (Z)-β-methyl-2-[2-methyl-4-(1-(E)-methoximinoethyl)phenoxy]methylcinnamate]	99
CO/N=C(\C)c1ccc(OCc2ccccc2/C(C)=C/C(=O)OC)c(C)c1 [Compound 1a.113, methyl (E)-β-methyl-2-[2-methyl-4-(1-(E)-methoximinoethyl)phenoxy]methylcinnamate]	80
COC(=O)/C=C(/OC)c1ccccc1CSc1nc(-c2ccccc2)cs1 [Compound 1a.162]	76

SMILES	% inhibition of respiration at 1.8 × 10^-5 mol/l test substance, Saccharomyces cerevisiae [%]
COC(=O)/C=C(/OC)c1ccccc1/C=C/c1ccccc1 [Compound 1a.233]	88
COC(=O)/C=C(/OC)c1ccccc1/C=C/c1cccc([N+](=O)[O-])c1 [Compound 1a.240]	94
COC(=O)/C=C(/OC)c1ccccc1/C=C\c1cccc([N+](=O)[O-])c1 [Compound 1a.241]	20
COC(=O)/C=C(/OC)c1ccccc1/C=C\c1ccccc1C(F)(F)F [Compound 1a.244]	65
COC(=O)/C=C(/OC)c1ccccc1/C=C/c1ccccc1C [Compound 1a.247]	99
COC(=O)/C=C(/OC)c1ccccc1/C=C/c1ccc(C)cc1 [Compound 1a.250]	99
COC(=O)/C=C(/OC)c1ccccc1/C=C\c1ccc(C)cc1 [Compound 1a.251]	54
COC(=O)/C=C(/OC)c1ccccc1/C=C/c1ccc(OCc2ccccc2)cc1 [Compound 1a.264, methyl 2-[2-(4-benzyloxyphenyl)-(E)-ethenyl]-(E)-β-methoxycinnamate]	98
COC(=O)/C=C(/OC)c1ccccc1/C=C/c1cccc(Oc2ccccc2)c1 [Compound 1a.271]	92
COC(=O)/C=C(/OC)c1ccccc1/C=C\c1cccc(Oc2ccccc2)c1 [Compound 1a.272]	51
COC(=O)/C=C(/OC)c1ccccc1/C=C/c1cc[nH]c1 [Compound 1a.288]	50
COC(=O)/C=C(/OC)c1ccccc1/C=C/c1nnc(-c2ccccc2)s1 [Compound 1a.308]	99
COC(=O)/C=C(/OC)c1ccccc1/C=C/c1cnn(-c2cccc(Cl)c2)c1 [Compound 1a.316]	98
COC(=O)/C=C(/OC)c1ccccc1/C=C\c1cnn(-c2cccc(Cl)c2)c1 [Compound 1a.317]	29
COC(=O)/C=C(/OC)c1ccccc1/C=C\c1cnn(-c2ccc(OC)cc2)c1 [Compound 1a.319]	11
COC(=O)/C=C(/OC)c1ccccc1/C=C/c1cnn(-c2ccc(Cl)cc2)c1 [Compound 1a.320]	98
COC(=O)/C=C(/OC)c1ccccc1/C=C/c1noc(-c2ccc(Cl)cc2)c1C [Compound 1a.322]	99
COC(=O)/C=C(/OC)c1ccccc1/C=C/c1cc(CC(C)C)no1 [Compound 1a.324]	99
COC(=O)/C=C(/OC)c1ccccc1/C=C/C1CCCOC1 (centres unmarked) [Compound 1a.329]	9
COC(=O)/C=C(/OC)c1ccccc1/C=C/C1CCOC(c2ccccc2)C1 (centres unmarked) [Compound 1a.331]	79
COC(=O)/C=C(/OC)c1ccccc1/C=C/C1CCOC(C2CCCOC2)C1 (centres unmarked) [Compound 1a.333]	20
COC(=O)/C=C(/OC)c1ccccc1CON=C(c1ccccc1)c1ccc(Cl)cc1 [Compound 1a.358]	99

tested on: mitochondrial respiration; assay: Inhibition of mitochondrial respiration (rate of reduction of cytochrome c in isolated mitochondria), house fly; type: biochemical, Musca domestica; settings: DMSO control
Excerpt: It is also possible similarly to isolate mitochondria from other organisms, e.g. from the phytopathogenic fungus Drechslera sorokiniana (synonym: Helminthosporium sativum), from the dermatophyte Trichophyton mentagrophytes, which is a human pathogen, and, for example, from the house fly (Musca domestica) as insect or from the spider mite Tetranychus urticae.
as §1, §2

SMILES	% inhibition of respiration at 1.8 × 10^-5 mol/l test substance, Musca domestica [%]
COC(=O)/C=C(/OC)c1ccccc1OCc1csc(-c2ccc(F)cc2)n1 [Compound 1.71, methyl (E)-β-methoxy-2-[2-(4-fluorophenyl)-4-thiazolylmethyloxy]cinnamate]	18
COC(=O)/C=C(/OC)c1ccccc1/C=C/c1ccccc1 [Compound 1a.233]	89
COC(=O)/C=C(/OC)c1ccccc1/C=C/c1cccc([N+](=O)[O-])c1 [Compound 1a.240]	84
COC(=O)/C=C(/OC)c1ccccc1/C=C\c1cccc([N+](=O)[O-])c1 [Compound 1a.241]	9
COC(=O)/C=C(/OC)c1ccccc1/C=C\c1ccccc1C(F)(F)F [Compound 1a.244]	50
COC(=O)/C=C(/OC)c1ccccc1/C=C/c1cccc(Oc2ccccc2)c1 [Compound 1a.271]	94
COC(=O)/C=C(/OC)c1ccccc1/C=C\c1cccc(Oc2ccccc2)c1 [Compound 1a.272]	78
COC(=O)/C=C(/OC)c1ccccc1/C=C/c1cc[nH]c1 [Compound 1a.288]	22
